Results reported in PubChem BioAssay AID624333 (NMMLSC, 2012).
Calls of active or inactive are those of the source.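 The calls were made as follows: active = inhibition of binding above 0%; inactive = the rest.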

system: anti-Dsg3 scFv antibody binding to human desmoglein-3; test: blockers of Dsg3 recognition by pemphigus scFv, confirmation, orthogonal assay for pemphigus antibody inhibitor project, biochemical, ELISA (AID 624333); conditions: OD, at 200 µM, stronger effect = higher value

SMILES | inhibition of binding
Cc1c(C(=O)Nc2ccc(OCc3ccccc3)cc2)cccc1[N+](=O)[O-] | -33% (inactive)
CCc1ccc(OCC(=O)Nc2ccc(N3CCN(C(=O)c4ccccc4)CC3)cc2)cc1 | -5% (inactive)
Cn1c(SCC(=O)NC2CCCCC2)nnc1-c1cc2cc(Cl)ccc2o1 | 0% (inactive)
CC(=O)Nc1ccc(-c2cc(-c3ccccc3)nc(-c3ccccc3)n2)cc1 | 5%
COc1ccccc1NC(=O)Cn1nnc(-c2ccccc2NC(=O)c2cc3ccccc3oc2=O)n1 | -32% (inactive)
CSc1ccccc1OCc1cc(C(=O)NCCC2=CCCCC2)no1 | -14% (inactive)
CC(C)OC(=O)CSc1nc2c(cc1C#N)CCCCC2 | -2% (inactive)
CCOc1ccccc1NCc1cc(=O)oc2cc(C)c(O)cc12 | -4% (inactive)
Cc1cc(SCC(=O)Nc2ccc3[nH]c(=O)[nH]c3c2)nc2ccccc12 | 8%
COc1ccc(OC)c(NC(=O)c2nc(-c3ccccc3)oc2C)c1 | -2% (inactive)
Cc1ccc(C(C)C)c(OCC(=O)Nc2ccc(N3CCN(S(C)(=O)=O)CC3)cc2)c1 | -19% (inactive)
COc1cc(OC)cc(N(C(=O)C2COc3ccccc3O2)C(C(=O)NC2CCCCC2)c2ccc(O)cc2)c1 (centres undefined) | -3% (inactive)
NS(=O)(=O)c1ccc(NC(=O)c2cc(-c3cccs3)nc3ccccc23)cc1 | -18% (inactive)
OCc1cn(-c2ccccc2)nc1-c1ccc(-c2nn(-c3ccccc3)cc2CO)cc1 | -14% (inactive)
